Reference: publication PMC7374097, “UGT2B17 modifies drug response in chronic lymphocytic leukaemia” (British Journal of Cancer, 2020)
Like-named read-outs stand apart in the source and are kept apart here.

T1: human liver microsomes (Homo sapiens, UniProt P22310)
T1 sequence (P22310 29-534): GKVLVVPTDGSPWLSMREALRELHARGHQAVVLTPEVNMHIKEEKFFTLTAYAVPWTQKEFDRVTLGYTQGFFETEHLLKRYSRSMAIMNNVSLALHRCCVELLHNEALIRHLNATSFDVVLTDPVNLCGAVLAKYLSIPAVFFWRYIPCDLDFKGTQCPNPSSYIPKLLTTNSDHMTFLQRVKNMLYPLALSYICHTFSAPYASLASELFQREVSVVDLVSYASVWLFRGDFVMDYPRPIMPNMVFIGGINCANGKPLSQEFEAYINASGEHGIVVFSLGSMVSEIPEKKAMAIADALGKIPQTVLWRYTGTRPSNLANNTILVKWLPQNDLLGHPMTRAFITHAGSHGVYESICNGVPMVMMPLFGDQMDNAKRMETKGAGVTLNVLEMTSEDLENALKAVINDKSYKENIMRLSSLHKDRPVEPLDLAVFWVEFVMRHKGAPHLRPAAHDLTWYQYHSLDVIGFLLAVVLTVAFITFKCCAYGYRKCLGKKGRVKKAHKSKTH

T2: UGT1A4 (Homo sapiens, UniProt P22310)
T2 sequence (P22310 29-534): T1 sequence (P22310 29-534)

B1: UGT1A4 (Homo sapiens) (protein)
chain: T1 sequence (P22310 29-534)
B2: UGT2B17 (Homo sapiens) (protein)
chain: GKVLVWPTEYSHWINMKTILEELVQRGHEVIVLTSSASILVNASKSSAIKLEVYPTSLTKNDLEDFFMKMFDRWTYSISKNTFWSYFSQLQELCWEYSDYNIKLCEDAVLNKKLMRKLQESKFDVLLADAVNPCGELLAELLNIPFLYSLRFSVGYTVEKNGGGFLFPPSYVPVVMSELSDQMIFMERIKNMIYMLYFDFWFQAYDLKKWDQFYSEVLGRPTTLFETMGKAEMWLIRTYWDFEFPRPFLPNVDFVGGLHCKPAKPLPKEMEEFVQSSGENGIVVFSLGSMISNMSEESANMIASALAQIPQKVLWRFDGKKPNTLGSNTRLYKWLPQNDLLGHPKTKAFITHGGTNGIYEAIYHGIPMVGIPLFADQHDNIAHMKAKGAALSVDIRTMSSRDLLNALKSVINDPIYKENIMKLSRIHHDQPVKPLDRAVFWIEFVMRHKGAKHLRVAAHNLTWIQYHSLDVIAFLLACVATMIFMITKCCLFCFRKLAKTGKKKKRD

How the values were obtained:
MEC1 cells [1] = assay: MTS cell viability assay, MEC1 cells (control or overexpressing UGT2B17); assay type: cell-based, human; settings: for IC50: Homo sapiens, 72 h; for Fold over control: MEC1, IC50 2B17 / CTRL
Description: (§1) Cells were plated at 1 × 10^4 cells/well (MEC1) or at 5 × 10^4 cells/well (JVM2) in 96-well U-bottom tissue culture plates (BD Bioscience, Mississauga, ON, Canada). Drugs were added at time of plating at concentrations ranging from 1 nM to 100 µM (7–9 concentrations per drug), depending on the drug and based on cell viability. MTS cell viability assays (Aqueous One assay, Promega, Madison, WI, USA) were conducted 72 h after treatment initiation according to the manufacturer’s instructions. […] Control cells were treated with corresponding vehicle concentration. […] IC50 were calculated by fitting variable slope non-linear curves to normalised response data from drug treatments using GraphPad Prism v5 (GraphPad Software Inc., La Jolla, CA, USA). Assays were replicated at least three times in triplicates.

JVM2 cells [2] = assay: MTS cell viability assay, JVM2 cells (control or overexpressing UGT2B17); assay type: cell-based, human; settings: for IC50: Homo sapiens, JVM-2, 72 h; for Fold over control: JVM2, IC50 2B17 / CTRL
Description: as §1

human liver microsomes [3] = assay: Glucuronidation assay with human liver microsomes; settings: for Glucuronide (G) products formed: pooled human liver microsomes, MS
Description: (§2) Electrospray ionisation was performed in the positive ion mode.

[4] = test system: individual human UGT isoforms; assay: Screening of tissues and individual recombinant UGT1A (n = 8) and UGT2B (n = 6) enzymes by quantitative MS; settings: liver, kidney, intestine and recombinant UGTs
Description: as §2

JVM2 cells [5] = settings: JVM2, Annexin V/PI, 72 h
Description: (§3) Cells plated in 96-well plates at 2 × 10^4 cells/well (MEC1) or 3 × 10^4 cells/well (JVM2) were exposed to varying drug concentrations as above for 72 h. Cells were washed, labelled for 12 min with Annexin V (1:200) and PI (2 µg/ml) in Annexin V binding buffer, then immediately analysed by flow cytometry on a FACSCelesta equipped with a high throughput sampler (BD Bioscience). Annexin V labelling assays were replicated at least twice in duplicates.
(§4) MEC1 (a, c, e) and JVM2 (b, d, f) cells expressing low or high UGT2B17 levels were exposed to
(§5) increasing drug concentrations. Cells were stained with Annexin V (AnV) and propidium iodide (PI) 72
(§6) hours after treatment initiation. The AV-/PI- cells constituted the viable cell population.

MEC1 cells [6] = settings: MEC1, Annexin V/PI, 72 h
Description: as §3, §4, §5, §6

UGT2B17 expression = assay: UGT2B17 mRNA by RT-qPCR in drug-treated cell models; assay type: cell-based, human; settings: MEC1, JVM2 and EHEB cells, drug treatment; P < 0.01
[7] = test system: fludarabine glucuronidation; assay: Fludarabine glucuronidation in drug-treated cell models; assay type: cell-based, human
Description: as §2

[8] = Glucuronidation assay with human liver microsomes; settings: human, human liver microsomes, pH 7.5
Description: as §2

human liver microsomes [9] = target: T1, human liver microsomes; assay: Glucuronidation assay with human liver microsomes; settings: UGT1A4 inhibitory constant Ki, Liver, inhibitor hecogenin
Description: as §2

UGT1A4 = target: T2, UGT1A4; assay: Glucuronidation assay with UGT1A4 supersomes; settings: for Ki: UGT1A4 inhibitory constant Ki, UGT1A4, inhibitor hecogenin
Description: In the absence of commercially available UGT2B11 supersomes, microsomal proteins derived from HEK293 expressing the recombinant UGT2B11 enzyme were used. […] Samples were then stopped by adding 100 µL cold methanol, centrifuged at 16,000×g for 10 min and supernatants analysed by mass spectrometry. The following negative controls were included for each analysis: reaction assays without substrate, without the microsomal fraction and without substrate and microsomal fraction.

[10] = substrate: Nc1nc(F)nc2c1ncn2[C@@H]1O[C@H](CO)[C@@H](O)[C@@H]1O; assay: cells, lysate or membranes named; settings: predominant drug-G, pH 7.5, 37.0 °C
[11] = MEC1 cells overexpressing UGT2B17, MTS, read-out: 2B17 IC50
[12] = MEC1 control cells, MTS, read-out: CTRL IC50
[13] = JVM2 cells overexpressing UGT2B17, MTS, read-out: 2B17 IC50
[14] = JVM2 control cells, MTS, read-out: CTRL IC50

Glucuronide (G) products formed (human liver microsomes [3]) | Molecule | IC50 (MEC1 cells [1]; [11]) | IC50 (MEC1 cells [1]; [12]) | Fold over control (MEC1 cells [1]) | IC50 (JVM2 cells [2]; [13]) | IC50 (JVM2 cells [2]; [14]) | Fold over control (JVM2 cells [2]) | also measured
– | C[C@@H]1CC[C@@]2(OC1)O[C@H]1C[C@H]3[C@@H]4CC[C@H]5C[C@@H](O)CC[C@]5(C)[C@H]4CC(=O)[C@]3(C)[C@H]1[C@@H]2C [Hecogenin, hecogenin] | – | – | – | – | – | – | Ki (human liver microsomes [9]; substrate ibrutinib): 5.8 µM; Ki (human liver microsomes [9]; substrate idelalisib): 0.9 µM; Formation of ibrutinib and idelalisib G1 and G2 abolished (UGT1A4; UGT1A4 and livers, in the presence of hecogenin): ~90%; Ki (UGT1A4; substrate ibrutinib): 2.8 µM; Ki (UGT1A4; substrate idelalisib): 0.6 µM
– | C=CC(=O)N1CCC[C@@H](n2nc(-c3ccc(Oc4ccccc4)cc3)c3c(N)ncnc32)C1 [Ibrutinib, ibrutinib] | 4.13 µM | 0.99 µM | – | 8.95 µM | 3.64 µM | – | –
– | CC[C@H](Nc1ncnc2[nH]cnc12)c1nc2cccc(F)c2c(=O)n1-c1ccccc1 [Idelalisib, idelalisib] | 7.4 µM | 1.73 µM | – | 2.95 µM | 1.79 µM | – | Cytotoxicity at clinically relevant concentrations (JVM2 cells [5]): low and no cytotoxicity; Cytotoxicity at clinically relevant concentrations (MEC1 cells [6]): low and no cytotoxicity; Fludarabine glucuronidation following drug treatment [7]: increased
at least one G product | CC1(C)CCC(CN2CCN(c3ccc(C(=O)NS(=O)(=O)c4ccc(NCC5CCOCC5)c([N+](=O)[O-])c4)c(Oc4cnc5[nH]ccc5c4)c3)CC2)=C(c2ccc(Cl)cc2)C1 [Venetoclax, venetoclax] | 4.16 µM | 2.22 µM | 1.87 | 2.94 µM | 4.06 µM | 0.72 | –
at least one G product | CC#CC(=O)N1CCC[C@H]1c1nc(-c2ccc(C(=O)Nc3ccccn3)cc2)c2c(N)nccn12 [acalibrutinib, acalabrutinib] | – | – | – | – | – | – | –
at least one G product | CCS(=O)(=O)N1CCN(c2ccc(Nc3ncc(C(N)=O)c(NC4CC4)n3)cc2)CC1 [cerdulatinib] | – | – | – | – | – | – | UGT enzyme(s) involved in glucuronidation of the drug [4]: UGT2B17 plays a role in the inactivation
at least one G product | C[C@H](Nc1ncnc2[nH]cnc12)c1cc2cccc(Cl)c2c(=O)n1-c1ccccc1 [duvelisib] | – | – | – | – | – | – | –
– | B1 | – | – | – | – | – | – | Km ([10]; other: UGT1A4): 1020 µM; Vmax ([10]; other: UGT1A4): 0.05 pmol/min/mg protein
– | B2 | – | – | – | – | – | – | Km ([10]; other: UGT2B17): 949 µM; Vmax ([10]; other: UGT2B17): 0.01 pmol/min/mg protein

Molecule | Glucuronide (G) products formed (human liver microsomes [3]) | IC50 (MEC1 cells [1]; [11]) | IC50 (MEC1 cells [1]; [12]) | Fold over control (MEC1 cells [1]) | IC50 (JVM2 cells [2]; [13]) | IC50 (JVM2 cells [2]; [14]) | Fold over control (JVM2 cells [2]) | also measured
Cn1c(CCCC(=O)O)nc2cc(N(CCCl)CCCl)ccc21 [Bendamustine, bendamustine] | at least one G product | 76 µM | 60.1 µM | 1.27 | 62.8 µM | 54.2 µM | 1.16 | –
O=C(O)CCCc1ccc(N(CCCl)CCCl)cc1 [Chlorambucil, chlorambucil] | at least one G product | 12.3 µM | 7.99 µM | 1.55 | 8.64 µM | 10.4 µM | 0.83 | UGT enzyme(s) involved in glucuronidation of the drug [4]: UGT2B17 plays a role in the inactivation
Nc1nc(F)nc2c1ncn2[C@@H]1O[C@H](CO)[C@@H](O)[C@@H]1O [Fludarabine, fludarabine] | two glucuronides | 58.8 µM | 29.3 µM | 2.01 | 15.1 µM | 9.08 µM | 1.66 | Concentration at which cytotoxic (JVM2 cells [5]): > 5 µM; Cytotoxicity at clinically relevant concentrations (JVM2 cells [5]): no cytotoxicity; Concentration at which cytotoxicity was observed (MEC1 cells [6]): > 40 µM; Cytotoxicity at clinically relevant concentrations (MEC1 cells [6]): no cytotoxicity; Induction of UGT2B17 expression (UGT2B17 expression): significantly induced; Fludarabine glucuronidation following drug treatment [7]: increased; Km at 6 h [8]: 878 µM; Velocity Vmax (human liver microsomes [3]; Liver, predominant drug-G, velocity at highest substrate concentration): 0.12 pmol/min/mg protein; UGT enzyme(s) involved in glucuronidation of the drug [4]: UGT2B17 and UGT1A4 were the main conjugating enzymes
